# Measured values reported in patent US20200354348A1, “SEMISYNTHETIC AURONES AND METHODS OF USE THEREOF” (University of Kentucky Research Foundation, priority 2018, published 2020).
# Where a name gives a salt, the structure may show the parent alone.
# Test system: LS174T cells
# Assay: Proliferation inhibition assay, LS174T
# Format: cell-based
# Details: Homo sapiens, LS174T; 300 nM; Table 2
# Procedure: (§1) Cell Culture. LS174T (colon cancer cells), PC-3 (prostate cancer cells), MCF-7 (beast) and A549 (lung) were cultured in the medium recommended by American Type Culture Collection at 37° C. with 5% CO2 atmosphere in a water jacketed incubator. Ovcar-8 and NCI/ADR-RES are gifts from Dr. Markos Leggas. Alpha-tubulin antibodies, TRITC-conjugated anti-rabbit antibody.
# (§2) Proliferation inhibition assay. Cancer cells were seeded into 24-well plates at a density of 20,000 cells per well in 1 mL of culture medium and cultured overnight at 37° C. Compounds and the vehicle control DMSO were added to the cells. After 6 days, medium was removed and 100 μL of trypsin was added. Then the cells resuspended in pbs were counted by Vi-CELL XR 2.03 (Beckman Coulter, Inc. USA). The ratio R of the number of viable cells in the compound treatment group to the number of viable cells in DMSO treatment group was taken as relative growth, and the percentage growth inhibition was calculated as: (1−R)*100. For initial testing, compounds were added to the cells at a final concentration 10 μM. Active compounds at 10 μM would be tested at lower concentrations.
row,Compound,inhibition at 0.3 µM [%]
1,CCn1cc(/C=C2\Oc3cc(OCc4c(Cl)cccc4Cl)ccc3C2=O)c2cc(OC)ccc21 [Aurone 4o],3.3 ± 24

# Same assay, conditions: Homo sapiens, LS174T; 1 μM; Table 2
row,Compound,inhibition at 1 µM [%]
1,CCn1cc(/C=C2\Oc3cc(OCc4c(Cl)cccc4Cl)ccc3C2=O)c2cc(OC)ccc21 [Aurone 4o],7.3 ± 18

# Same assay, conditions: Homo sapiens, LS174T; 10 μM; Table 2
row,Compound,inhibition at 10 µM [%]
1,CCn1cc(/C=C2\Oc3cc(OCc4c(Cl)cccc4Cl)ccc3C2=O)c2cc(OC)ccc21 [Aurone 4o],94 ± 1.7

# Test system: PC-3 cells
# Assay: Proliferation inhibition assay, PC-3
# Format: cell-based
# Details: Homo sapiens, PC-3; 300 nM; Table 2
# Procedure: as §1, §2
row,Compound,inhibition at 0.3 µM [%]
1,CCn1cc(/C=C2\Oc3cc(OCc4c(Cl)cccc4Cl)ccc3C2=O)c2cc(OC)ccc21 [Aurone 4o],3.9 ± 11

# Same assay, conditions: Homo sapiens, PC-3; 1 μM; Table 2
row,Compound,inhibition at 1 µM [%]
1,CCn1cc(/C=C2\Oc3cc(OCc4c(Cl)cccc4Cl)ccc3C2=O)c2cc(OC)ccc21 [Aurone 4o],67 ± 5.8

# Same assay, conditions: Homo sapiens, PC-3; 10 μM; Table 2
row,Compound,inhibition at 10 µM [%]
1,CCn1cc(/C=C2\Oc3cc(OCc4c(Cl)cccc4Cl)ccc3C2=O)c2cc(OC)ccc21 [Aurone 4o],96 ± 1.1

# Test system: not given
# Assay: not given
# Details: not given
row,Compound,melting point [°C]
1,"O=C1/C(=C/c2nccc3ccccc23)Oc2cc(O)ccc21 [Aurone 3d, (2Z)-6-Hydroxy-2-(isoquinolin-1-ylmethylene)-1-benzofuran-3(2H)-one]",> 220
2,"O=C1/C(=C/c2ccccn2)Oc2cc(O)ccc21 [Aurone 3a, (2Z)-6-Hydroxy-2-(pyridin-2-ylmethylene)-1-benzofuran-3(2H)-one]",246 to 248
3,"O=C1/C(=C/c2ccc3ccccc3n2)Oc2cc(O)ccc21 [Aurone 3e, (2Z)-6-Hydroxy-2-(quinolin-2-ylmethylene)-1-benzofuran-3(2H)-one]",249 to 251
4,"COc1ccc2c(c1)c(/C=C1\Oc3cc(O)ccc3C1=O)cn2C [Aurone 3k, (2Z)-6-Hydroxy-2-[(5-methoxy-1-methyl-1H-indol-3-yl)methylene]-1-benzofuran-3(2H)-one]",301 to 303
5,"Cn1cc(/C=C2\Oc3cc(O)ccc3C2=O)c2ccccc21 [Aurone 3j, (2Z)-6-Hydroxy-2-[(1-methyl-1H-indol-3-yl)methylene]-1-benzofuran-3(2H)-one]",272 to 274
6,"O=C1/C(=C/c2cccnc2)Oc2cc(O)ccc21 [Aurone 3b, (2Z)-6-Hydroxy-2-(pyridin-3-ylmethylene)-1-benzofuran-3(2H)-one]",255 to 257
7,"CCn1cc(/C=C2\Oc3cc(O)ccc3C2=O)c2ccccc21 [Aurone 3m, (2Z)-2-[(1-Ethyl-1H-indol-3-yl)methylene]-6-hydroxy-1-benzofuran-3(2H)-one]",278 to 280
8,"O=C1/C(=C/c2ccc(N3CCSCC3)cc2)Oc2cc(O)ccc21 [Aurone 2d, (2Z)-6-Hydroxy-2-[(4-thiomorpholin-4-ylbenzylidene)]-1-benzofuran-3(2H)-one]",> 220
9,"Cc1c(O)ccc2c1O/C(=C\c1cn(C)c3ccccc13)C2=O [Aurone 3n, (2Z)-6-Hydroxy-7-methyl-2-[(1-methyl-1H-indol-3-yl)methylene]-1-benzofuran-3(2H)-one]",293 to 295
10,"O=C1/C(=C/c2c[nH]c3ccccc23)Oc2cc(O)ccc21 [Aurone 3i, (2Z)-6-Hydroxy-2-(1H-indol-3-ylmethylene)-1-benzofuran-3(2H)-one]",280 to 282
11,CN1CCN(c2ccc(/C=C3\Oc4cc(O)ccc4C3=O)cc2)CC1 (as salt: hydrochloride),> 220
12,"CN(C)c1ccc(/C=C2\Oc3cc(O)ccc3C2=O)c(Cl)c1 [Aurone 2e, (2Z)-2-[2-Chloro-4-(dimethylamino)benzylidene]-6-hydroxy-1-benzofuran-3(2H)-one]",> 220
13,"CCN(CC)c1ccc(/C=C2\Oc3cc(O)ccc3C2=O)c(OC)c1 [Aurone 2f, (2Z)-2-[4-(Diethylamino)-2-methoxybenzylidene]-6-hydroxy-1-benzofuran-3(2H)-one]",> 220
14,"O=C1/C(=C/c2ccc(N3CCCC3)cc2)Oc2cc(O)ccc21 [Aurone 2a, (2Z)-6-Hydroxy-2-(4-pyrrolidin-1-ylbenzylidene)-1-benzofuran-3(2H)-one]",> 220

# Second part, the molecule after the results:
row,melting point [°C],Compound
1,> 220,"CN(C)c1ccc(/C=C2\Oc3cc(OCc4ccccc4Cl)ccc3C2=O)c(Cl)c1 [Aurone 4s, (2Z)-6-[(2-Chlorobenzyl)oxy]-2-[2-chloro-4-(dimethylamino)benzylidene]-1-benzofuran-3(2H)-one]"
2,211 to 213,"CCn1cc(/C=C2\Oc3cc(OCc4c(Cl)cccc4Cl)ccc3C2=O)c2cc(OC)ccc21 [Aurone 4o, (2Z)-6-[(2,6-Dichlorobenzyl)oxy]-2-[(1-ethyl-5-methoxy-1H-indol-3-yl)methylene]-1-benzofuran-3(2H)-one]"
3,233 to 235,"COc1ccc2c(c1)c(/C=C1\Oc3cc(OCc4c(Cl)cccc4Cl)ccc3C1=O)cn2C [Aurone 4l, (2Z)-6-[(2,6-Dichlorobenzyl)oxy]-2-[(5-methoxy-1-methyl-1H-indol-3-yl)methylene]-1-benzofuran-3(2H)-one]"
4,213 to 215,"CCn1cc(/C=C2\Oc3cc(OCc4c(Cl)cccc4Cl)ccc3C2=O)c2ccccc21 [Aurone 4q, (2Z)-6-[(2,6-Dichlorobenzyl)oxy]-2-[(1-ethyl-1H-indol-3-yl)methylene]-1-benzofuran-3(2H)-one]"
5,297 to 299,"COc1ccc2c(c1)c(/C=C1\Oc3c(ccc(O)c3C)C1=O)cn2C [Aurone 3o, (2Z)-6-Hydroxy-2-[(5-methoxy-1-methyl-1H-indol-3-yl)methylene]-7-methyl-1-benzofuran-3(2H)-one]"
6,241 to 243,"COc1ccc2c(c1)c(/C=C1\Oc3c(ccc(OCc4c(Cl)cccc4Cl)c3C)C1=O)cn2C [Aurone 4m, (2Z)-6-[(2,6-Dichlorobenzyl)oxy]-2-[(5-methoxy-1-methyl-1H-indol-3-yl)methylene]-7-methyl-1-benzofuran-3(2H)-one]"
7,184 to 186,"COc1ccc2c(c1)c(/C=C1\Oc3cc(OCc4ccc(F)cc4Cl)ccc3C1=O)cn2C [Aurone 4j, (2Z)-6-[(2-Chloro-4-fluorobenzyl)oxy]-2-[(5-methoxy-1-methyl-1H-indol-3-yl)methylene]-1-benzofuran-3(2H)-one]"
8,225 to 227,"Cn1cc(/C=C2\Oc3cc(OCc4c(F)cccc4Cl)ccc3C2=O)c2ccccc21 [Aurone 4h, (2Z)-6-[(2-Chloro-6-fluorobenzyl)oxy]-2-[(1-methyl-1H-indol-3-yl)methylene]-1-benzofuran-3(2H)-one]"
9,200 to 202,"COc1ccc2c(c1)c(/C=C1\Oc3cc(OCc4c(F)cccc4Cl)ccc3C1=O)cn2C [Aurone 4k, (2Z)-6-[(2-Chloro-6-fluorobenzyl)oxy]-2-[(5-methoxy-1-methyl-1H-indol-3-yl)methylene]-1-benzofuran-3(2H)-one]"
10,198 to 200,"CCn1cc(/C=C2\Oc3cc(OCc4c(F)cccc4Cl)ccc3C2=O)c2ccccc21 [Aurone 4p, (2Z)-6-[(2-Chloro-6-fluorobenzyl)oxy]-2-[(1-ethyl-1H-indol-3-yl)methylene]-1-benzofuran-3(2H)-one]"
11,206 to 208,"Cn1cc(/C=C2\Oc3cc(OCc4ccccc4Cl)ccc3C2=O)c2ccccc21 [Aurone 4e, (2Z)-6-[(2-Chlorobenzyl)oxy]-2-[(1-methyl-1H-indol-3-yl)methylene]-1-benzofuran-3(2H)-one]"
12,232 to 234,"Cc1c(OCc2c(Cl)cccc2Cl)ccc2c1O/C(=C\c1cn(C)c3ccccc13)C2=O [Aurone 4i, (2Z)-6-[(2,6-Dichlorobenzyl)oxy]-7-methyl-2-[(1-methyl-1H-indol-3-yl)methylene]-1-benzofuran-3(2H)-one]"
13,> 220,"Cn1cc(/C=C2\Oc3cc(OCc4c(F)cccc4F)ccc3C2=O)c2ccccc21 [Aurone 4f, (2Z)-6-[(2,6-Difluorobenzyl)oxy]-2-[(1-methyl-1H-indol-3-yl)methylene]-1-benzofuran-3(2H)-one]"
14,184 to 186,"CCN(CC)c1ccc(/C=C2\Oc3cc(OCc4cc(F)ccc4F)ccc3C2=O)c(OC)c1 [Aurone 4t, (2Z)-6-[(2,5-Difluorobenzyl)oxy]-2-[4-(diethylamino)-2-methoxybenzylidene]-1-benzofuran-3(2H)-one]"
